In patent US9216968B2, “Heterocyclic derivative and pharmaceutical drug” (NIPPON SHINYAKU CO., LTD., priority 2011, dated 2015):
pIC50: −log10 of the molar value. Counter-ions that a name gives are not always drawn.

Key:
A549 cells = experiment: Inhibition of PGE2 production in A549 cell (IL-1β stimulated); type: cell-based, human; conditions: Homo sapiens, A549, 24 h, IL-1β 5 ng/well, PGE2 in culture medium
How it was run: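 After IL-1β (5 ng/well) stimulation for 24 h at 37 °C, following a 60-min compound pretreatment in RPMI with 3% FBS, medium PGE2 (HTRF) and PGF2α (EIA) from human A549 cells were quantified. 100% activity set as IL-1β-induced minus basal production; IC50 calculated.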

human mPGES-1 = human mPGES-1 (Homo sapiens (Human), UniProt O14684); experiment: mPGES-1 inhibiting activity (microsome fractions, PGE2 by HTRF); type: biochemical; conditions: microsomes from CHO-K1 cells transfected with human mPGES-1; PGH2 1 μM, 4° C., 60 seconds; read-out: mPGES-1 Inhibition IC50
How it was run: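 PGE2 formation read by HTRF after 60 s at 4 °C with 1 μM PGH2 substrate, following 20 min compound preincubation (1% DMSO) with human mPGES-1 microsomes from transfected CHO-K1 cells. Buffer: potassium phosphate, reduced glutathione, pH 7.4; IC50 from activity relative to enzyme-free blank.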

human mPGES-1, sequence (O14684 whole entry): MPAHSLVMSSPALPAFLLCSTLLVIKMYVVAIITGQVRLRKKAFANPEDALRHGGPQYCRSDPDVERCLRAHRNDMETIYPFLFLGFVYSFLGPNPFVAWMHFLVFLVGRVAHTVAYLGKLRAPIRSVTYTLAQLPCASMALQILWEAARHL

COCc1nc2c(C(=O)Nc3cccc4cccnc34)cc(NC(=O)c3ccccc3C(F)(F)F)cc2[nH]1 [Example 230, 2-(Methoxymethyl)-N-(quinolin-8-yl)-6-({[2-(trifluoromethyl)phenyl]carbonyl}amino)-1H-benzimidazole-4-carboxamide hydrochloride]
pIC50 (A549 cells): 7.00 | pIC50 (human mPGES-1): 8.72

COCc1nc2c(C(=O)Nc3cccc(Br)c3C)cc(NC(=O)c3ccccc3C(F)(F)F)cc2[nH]1 [Example 38, N-(3-Bromo-2-methylphenyl)-2-(methoxymethyl)-6-({[2-(trifluoromethyl)phenyl]carbonyl}amino)-1H-benzimidazole-4-carboxamide]
pIC50 (A549 cells): 7.76 | pIC50 (human mPGES-1): 8.18

Cc1c(Cl)cccc1NC(=O)c1cc(NC(=O)c2ccccc2C(F)(F)F)cc2[nH]c(NCC(C)(C)C)nc12 [Example 140, N-(3-Chloro-2-methylphenyl)-2-[(2,2-dimethylpropyl)amino]-6-({[2-(trifluoromethyl)phenyl]carbonyl}amino)-1H-benzimidazole-4-carboxamide hydrochloride]
pIC50 (A549 cells): 7.48 | pIC50 (human mPGES-1): 9.70

Cc1nc2c(C(=O)Nc3cccc(Cl)c3C)cc(NC(=O)c3ccccc3C(F)(F)F)cc2o1 [Example 52, N-(3-Chloro-2-methylphenyl)-2-methyl-6-({[2-(trifluoromethyl)phenyl]carbonyl}amino)-1,3-benzoxazole-4-carboxamide]
pIC50 (A549 cells): 6.55 | pIC50 (human mPGES-1): 7.40

Cc1c(Cl)cccc1NC(=O)c1cc(NC(=O)c2ccccc2C(F)(F)F)cc2c1nc(NCC(C)(C)CO)n2C [Example 162, N-(3-Chloro-2-methylphenyl)-2-[(3-hydroxy-2,2-dimethylpropyl)amino]-1-methyl-6-({[2-(trifluoromethyl)phenyl]carbonyl}amino)-1H-benzimidazole-4-carboxamide hydrochloride]
pIC50 (A549 cells): 7.28 | pIC50 (human mPGES-1): 7.62

Cc1c(Cl)cccc1NC(=O)c1cc(NC(=O)c2cc(Cl)ccc2Cl)cc2[nH]c(C3(C)CC3)nc12 [Example 210, N-(3-Chloro-2-methylphenyl)-6-{[(2,5-dichlorophenyl)carbonyl]amino}-2-(1-methylcyclopropyl)-1H-benzimidazole-4-carboxamide hydrochloride]
pIC50 (A549 cells): 7.86 | pIC50 (human mPGES-1): 8.33

Cc1c(Cl)cccc1NC(=O)c1cc(NC(=O)c2ccccc2C(F)(F)F)cc2[nH]c(C3CCCC3)nc12 [Example 124, N-(3-Chloro-2-methylphenyl)-2-cyclopentyl-6-({[2-(trifluoromethyl)phenyl]carbonyl}amino)-1H-benzimidazole-4-carboxamide hydrochloride]
pIC50 (A549 cells): 8.49 | pIC50 (human mPGES-1): 8.66

Cn1cnc2c(C(=O)NCc3ccccc3C(F)(F)F)cc(NC(=O)c3ccccc3C(F)(F)F)cc21 [Example 48, 1-Methyl-N-[2-(trifluoromethyl)benzyl]-6-({[2-(trifluoromethyl)phenyl]carbonyl}amino)-1H-benzimidazole-4-carboxamide]
pIC50 (A549 cells): 6.83 | pIC50 (human mPGES-1): 7.30

CC(C)Cc1nc2c(C(=O)NCc3ccccc3C(F)(F)F)cc(NC(=O)c3ccccc3C(F)(F)F)cc2[nH]1 [Example 60, 2-(2-Methylpropyl)-N-[2-(trifluoromethyl)benzyl]-6-({[2-(trifluoromethyl)phenyl]carbonyl}amino)-1H-benzimidazole-4-carboxamide hydrochloride]
pIC50 (A549 cells): 8.10 | pIC50 (human mPGES-1): 7.70

Cc1c(Cl)cccc1NC(=O)c1cc(NC(=O)c2ccccc2C(F)(F)F)cc2[nH]c(CN(C)C)nc12 [Example 58, N-(3-Chloro-2-methylphenyl)-2-[(dimethylamino)methyl]-6-({[2-(trifluoromethyl)phenyl]carbonyl}amino)-1H-benzimidazole-4-carboxamide hydrochloride]
pIC50 (A549 cells): 6.80 | pIC50 (human mPGES-1): 8.27

CCc1nc2c(C(=O)Nc3cccc(Cl)c3C)cc(NC(=O)c3ccccc3C(F)(F)F)cc2o1 [Example 54, N-(3-Chloro-2-methylphenyl)-2-ethyl-6-({[2-(trifluoromethyl)phenyl]carbonyl}amino)-1,3-benzoxazole-4-carboxamide]
pIC50 (A549 cells): 6.65 | pIC50 (human mPGES-1): 7.63

COCc1nc2c(C(=O)Nc3ccccc3Cc3ccccc3)cc(NC(=O)c3ccccc3C(F)(F)F)cc2[nH]1 [Example 229, N-(2-Benzylphenyl)-2-(methoxymethyl)-6-({[2-(trifluoromethyl)phenyl]carbonyl}amino)-1H-benzimidazole-4-carboxamide hydrochloride]
pIC50 (A549 cells): 7.41 | pIC50 (human mPGES-1): 8.64

Cc1c(Cl)cccc1NC(=O)c1cc(NC(=O)c2ccccc2C(F)(F)F)cc2[nH]c(C(C)(C)CCl)nc12 [Example 57, N-(3-Chloro-2-methylphenyl)-2-(1-chloro-2-methylpropan-2-yl)-6-({[2-(trifluoromethyl)phenyl]carbonyl}amino)-1H-benzimidazole-4-carboxamide]
pIC50 (A549 cells): 7.77 | pIC50 (human mPGES-1): 9.30

COCc1nc2c(C(=O)Nc3cccc(Cl)c3C)cc(NC(=O)c3c(Cl)cncc3Cl)cc2[nH]1 [Example 246, N-(3-Chloro-2-methylphenyl)-6-{[(3,5-dichloropyridin-4-yl)carbonyl]amino}-2-(methoxymethyl)-1H-benzimidazole-4-carboxamide hydrochloride]
pIC50 (A549 cells): 6.88 | pIC50 (human mPGES-1): 7.44

COCc1nc2c(C(=O)Nc3cccc(Cl)c3C)cc(NC(=O)c3cc(CCCOC(C)(C)C)ccc3Cl)cc2[nH]1 [Example 118, 6-({[5-(3-tert-Butoxypropyl)-2-chlorophenyl]carbonyl}amino)-N-(3-chloro-2-methylphenyl)-2-(methoxymethyl)-1H-benzimidazole-4-carboxamide hydrochloride]
pIC50 (A549 cells): 8.28 | pIC50 (human mPGES-1): 8.14

Cc1c(Cl)cccc1NC(=O)c1cc(NC(=O)c2ccccc2C(F)(F)F)cc2[nH]c([C@H]3CCCN3C(=O)OC(C)(C)C)nc12 [Example 70, tert-Butyl (2R)-2-{4-[(3-chloro-2-methylphenyl)carbamoyl]-6-({[2-(trifluoromethyl)phenyl]carbonyl}amino)-1H-benzimidazol-2-yl}pyrrolidine-1-carboxylate]
pIC50 (A549 cells): 6.83 | pIC50 (human mPGES-1): 8.34

COCc1nc2c(C(=O)Nc3ccc(C(C)(C)C)cc3)cc(NC(=O)c3ccccc3C(F)(F)F)cc2[nH]1 [Example 27, N-(4-tert-Butylphenyl)-2-(methoxymethyl)-6-({[2-(trifluoromethyl)phenyl]carbonyl}amino)-1H-benzimidazole-4-carboxamide hydrochloride]
pIC50 (A549 cells): 7.80 | pIC50 (human mPGES-1): 8.62

Cc1c(Cl)cccc1NC(=O)c1cc(NC(=O)c2cc(Cl)ccc2Cl)cc2[nH]c(NCC(C)(C)CO)nc12 [Example 189, N-(3-Chloro-2-methylphenyl)-6-{[(2,5-dichlorophenyl)carbonyl]amino}-2-[(3-hydroxy-2,2-dimethylpropyl)amino]-1H-benzimidazole-4-carboxamide hydrochloride]
pIC50 (A549 cells): 7.61 | pIC50 (human mPGES-1): 8.85

CCOCCOCc1ccc(Cl)c(C(=O)Nc2cc(C(=O)Nc3cccc(Cl)c3C)c3nc(COC)[nH]c3c2)c1 [Example 121, 6-[({2-Chloro-5-[(2-ethoxyethoxy)methyl]phenyl}carbonyl)amino]-N-(3-chloro-2-methylphenyl)-2-(methoxymethyl)-1H-benzimidazole-4-carboxamide hydrochloride]
pIC50 (A549 cells): 6.36 | pIC50 (human mPGES-1): 8.20

COCc1nc2c(C(=O)Nc3cccc(Cl)c3C)cc(NC(=O)c3c(Cl)cccc3Br)cc2[nH]1 [Example 102, 6-{[(2-Bromo-6-chlorophenyl)carbonyl]amino}-N-(3-chloro-2-methylphenyl)-2-(methoxymethyl)-1H-benzimidazole-4-carboxamide hydrochloride]
pIC50 (A549 cells): 7.31 | pIC50 (human mPGES-1): 8.80

CCc1nc2c(C(=O)NCc3ccccc3C(F)(F)F)cc(NC(=O)c3ccccc3C(F)(F)F)cc2[nH]1 [Example 19, 2-Ethyl-N-[2-(trifluoromethyl)benzyl]-6-({[2-(trifluoromethyl)phenyl]carbonyl}amino)-1H-benzimidazole-4-carboxamide]
pIC50 (A549 cells): 7.32 | pIC50 (human mPGES-1): 8.03

CC(=O)OCc1nc2c(C(=O)Nc3cccc(Cl)c3C)cc(NC(=O)c3ccccc3C(F)(F)F)cc2[nH]1 [Example 63, {4-[(3-Chloro-2-methylphenyl)carbamoyl]-6-({[2-(trifluoromethyl)phenyl]carbonyl}amino)-1H-benzimidazol-2-yl}methyl acetate]
pIC50 (A549 cells): 7.26 | pIC50 (human mPGES-1): 8.25

Cc1c(Cl)cccc1NC(=O)c1cc(NC(=O)c2c(F)cccc2Cl)cc2[nH]c(N[C@H](CO)C(C)C)nc12 [Example 201, 6-{[(2-Chloro-6-fluorophenyl)-carbonyl]amino}-N-(3-chloro-2-methylphenyl)-2-{[(25)-1-hydroxy-3-methylbutan-2-yl]amino}-1H-benzimidazole-4-carboxamide hydrochloride]
pIC50 (A549 cells): 6.60 | pIC50 (human mPGES-1): 9.30

Cc1c(Cl)cccc1NC(=O)c1cc(NC(=O)c2ccccc2C(F)(F)F)cc2[nH]c(N[C@H](CO)C(C)C)nc12 [Example 170, N-(3-Chloro-2-methylphenyl)-2-{[(2S)-1-hydroxy-3-methylbutan-2-yl]amino}-6-({[2-(trifluoromethyl)phenyl]carbonyl}amino-1H-benzimidazole-4-carboxamide hydrochloride]
pIC50 (A549 cells): 7.75 | pIC50 (human mPGES-1): 8.49

COCc1nc2c(C(=O)Nc3ccccc3C)cc(NC(=O)c3ccccc3C(F)(F)F)cc2[nH]1 [Example 22, 2-(Methoxymethyl)-N-(2-methylphenyl)-6-({[2-(trifluoromethyl)phenyl]carbonyl}amino)-1H-benzimidazole-4-carboxamide hydrochloride]
pIC50 (A549 cells): 6.98 | pIC50 (human mPGES-1): 8.32
